Test systems include IGROV1 ovarian; UACC-62 melanoma; MDA-MB-231 breast; HOP-92 NSCLC; OVCAR-4 ovarian; MDA-MB-435; OVCAR-8 ovarian; RXF 393 renal; MOLT-4 leukemia; CCRF-CEM leukemia; K-562 leukemia; SK-MEL-2 melanoma; OVCAR-3 ovarian.
What all share (assay): NCI tumour cell line growth inhibition, 48 h

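1) Cells in 96-well plates. 2) Compound, 48 h, 5 concentrations. 3) Linear interpolation between surrounding doses. 4) Unreached endpoint = highest concentration. Definition used: TGI = concentration required for complete inhibition of growth.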

`COc1ccc(C2=C(OC(C)=O)c3cccn3-c3ccccc3S2)cc1`: the TGI in the assay on IGROV1 ovarian is greater than 10 µM; in the assay with UACC-62 melanoma, greater than 10 µM; in the assay on MDA-MB-231 breast, greater than 10 µM; in the assay with HOP-92 NSCLC it was greater than 10 µM; with OVCAR-4 ovarian, greater than 10 µM; in the assay on MDA-MB-435, 0.877 µM. Besides, the TGI with OVCAR-8 ovarian was greater than 10 µM; in the assay on RXF 393 renal, 6.44 µM; in the assay with MOLT-4 leukemia, greater than 10 µM; in the assay on CCRF-CEM leukemia it was greater than 10 µM.
For the molecule `Cc1cc(S(=O)(=O)Nc2nc(N)n(C)n2)c(S)cc1Cl`, the TGI in the assay with IGROV1 ovarian, in the assay on K-562 leukemia, in the assay with UACC-62 melanoma, in the assay on MDA-MB-231 breast, in the assay on OVCAR-4 ovarian and in the assay with SK-MEL-2 melanoma was greater than 10 µM throughout. The TGI with MDA-MB-435, with OVCAR-3 ovarian, in the assay on OVCAR-8 ovarian, in the assay with RXF 393 renal, with MOLT-4 leukemia and in the assay with CCRF-CEM leukemia was greater than 10 µM throughout.
For the molecule `COC(CNC(=O)C(C)NC(=O)C(C)NC(=O)c1ccccc1)OC` (stereo not given), the TGI in the assay on IGROV1 ovarian, with K-562 leukemia, with UACC-62 melanoma, with MDA-MB-231 breast, in the assay on HOP-92 NSCLC and in the assay with OVCAR-4 ovarian was greater than 100 µM throughout. Further, the TGI in the assay on SK-MEL-2 melanoma, in the assay on MDA-MB-435, with OVCAR-8 ovarian, in the assay on RXF 393 renal, in the assay on MOLT-4 leukemia and in the assay with CCRF-CEM leukemia was greater than 100 µM in each case.
Take `COc1cc(Cn2c3c(c4cc(O)ccc42)C(=O)c2ccccc2C3=O)cc(OC)c1`: the TGI with IGROV1 ovarian was 13 µM; in the assay on UACC-62 melanoma, 7.64 µM; in the assay on MDA-MB-231 breast, 23.6 µM; in the assay with HOP-92 NSCLC, 19.7 µM; in the assay on OVCAR-4 ovarian, 33.6 µM; in the assay on SK-MEL-2 melanoma, greater than 100 µM. Also, the TGI in the assay on MDA-MB-435 is greater than 100 µM; with OVCAR-3 ovarian, 77.7 µM; with OVCAR-8 ovarian, 19.1 µM; in the assay with RXF 393 renal it was 35.5 µM; with MOLT-4 leukemia, 90.9 µM.
For `C=CCCCC1(C)CCCCNC1=O` (stereo not given), the TGI with IGROV1 ovarian, with K-562 leukemia, in the assay on UACC-62 melanoma, with MDA-MB-231 breast, in the assay with OVCAR-4 ovarian and in the assay on SK-MEL-2 melanoma was greater than 10 µM throughout. The TGI with MDA-MB-435, with OVCAR-3 ovarian, with OVCAR-8 ovarian, with RXF 393 renal, with MOLT-4 leukemia and in the assay with CCRF-CEM leukemia was greater than 10 µM each time.
Turning to `Cn1ncc2c(NCCc3ccccc3)nc(Cl)nc21`, the TGI with IGROV1 ovarian was greater than 100 µM; with K-562 leukemia, greater than 100 µM; with UACC-62 melanoma, 45.1 µM; in the assay on MDA-MB-231 breast, 39.4 µM; in the assay on HOP-92 NSCLC, 58.4 µM; with OVCAR-4 ovarian, 57.7 µM. Moreover, the TGI with SK-MEL-2 melanoma was 36.7 µM; in the assay on MDA-MB-435 it was 44.9 µM; in the assay on OVCAR-3 ovarian, greater than 100 µM; in the assay with OVCAR-8 ovarian, greater than 100 µM; in the assay with RXF 393 renal, greater than 100 µM; in the assay on MOLT-4 leukemia it was 39.9 µM.
Regarding `COc1cc(/C=C2\NC(=O)N(/C=C3\C(=O)Oc4ccccc4C3=O)C2=O)ccc1O`, the TGI in the assay on IGROV1 ovarian, in the assay on K-562 leukemia, with UACC-62 melanoma, in the assay with MDA-MB-231 breast, in the assay on HOP-92 NSCLC and in the assay on OVCAR-4 ovarian was greater than 100 µM each time. Moreover, the TGI in the assay on SK-MEL-2 melanoma was greater than 100 µM; in the assay with MDA-MB-435, greater than 100 µM; with OVCAR-8 ovarian, greater than 100 µM; with RXF 393 renal, 99.2 µM; in the assay on MOLT-4 leukemia, greater than 100 µM; in the assay with CCRF-CEM leukemia it was 92.6 µM.
`CC(=O)CN=C(C)NNc1ccc([N+](=O)[O-])cc1[N+](=O)[O-]`: the TGI with IGROV1 ovarian, in the assay on K-562 leukemia, with UACC-62 melanoma, in the assay on MDA-MB-231 breast, in the assay with OVCAR-4 ovarian and with SK-MEL-2 melanoma was greater than 100 µM throughout. Further, the TGI with MDA-MB-435, in the assay with OVCAR-3 ovarian, in the assay with OVCAR-8 ovarian, in the assay on RXF 393 renal, with MOLT-4 leukemia and with CCRF-CEM leukemia was greater than 100 µM in each case.
For `CN1c2ccccc2C2c3c(O)ccc(O)c3C=C([N+](=O)[O-])C21` (stereo not given), the TGI with IGROV1 ovarian was 5.87 µM; in the assay with K-562 leukemia it was greater than 100 µM; in the assay with UACC-62 melanoma, 2.66 µM; in the assay with MDA-MB-231 breast, 7.44 µM; with HOP-92 NSCLC, 5.84 µM; in the assay with OVCAR-4 ovarian, 2.81 µM. Also, the TGI in the assay with SK-MEL-2 melanoma is 7.08 µM; with MDA-MB-435, 0.366 µM; in the assay on RXF 393 renal, 15.5 µM; in the assay on MOLT-4 leukemia, greater than 27.4 µM; with CCRF-CEM leukemia, greater than 100 µM.
As for `C=CCC1(O)c2cccc(O)c2C(=O)c2c(O)cccc21`, the TGI is greater than 100 µM with IGROV1 ovarian; greater than 100 µM with K-562 leukemia; greater than 100 µM in the assay on MDA-MB-231 breast; 88.9 µM with HOP-92 NSCLC; greater than 100 µM with OVCAR-4 ovarian; 51.2 µM in the assay with SK-MEL-2 melanoma. Further, the TGI is greater than 100 µM in the assay with MDA-MB-435; greater than 100 µM in the assay on OVCAR-3 ovarian; greater than 100 µM with OVCAR-8 ovarian; 53.4 µM in the assay with RXF 393 renal; greater than 100 µM in the assay on MOLT-4 leukemia.

Values taken from PubChem BioAssay (NCI).
